# Assay results taken from patent US20240238266A1 (Novartis AG, priority 2021, published 2024).
# What was measured:
# AP activity (Wieslab) = experiment: First in human (FIH) studies: suppression of AP activity (Wieslab); format: in vivo
# [1] = Human absorption, distribution, metabolism, and excretion (ADME) study in healthy volunteers; format: in vivo
# [2] = system: organic anion-transporting polypeptide (OATP) hepatic uptake transporter; experiment: Preclinical studies of systemic disposition: hepatic uptake transporter; format: in vitro ADME
# Description: In addition, some contribution from direct kidney (approximately 20%) and direct biliary excretion (around 5 to 10%) is anticipated. Iptacopan is also a substrate for the organic anion-transporting polypeptide (OATP) hepatic uptake transporter. […] Typical examples are digoxin, quinidine, paclitaxel, fentanyl and phenytoin. However, if no alternative treatment is available, a staggered dosing approach is recommended (refer to Section 6.2.1.1). • · Concomitant medication listed under exclusion criteria 25 and 26 is prohibited except for the condition specified in the criterion.
# [3] = Food effect in study CLNP023X2101; format: in vivo
# AP = conditions: multiple in vitro and in vivo non-clinical studies (Schubart 2019); cited from earlier work
smiles,measurement,setting,value
"CCO[C@H]1CCN(Cc2c(OC)cc(C)c3[nH]ccc23)[C@H](c2ccc(C(=O)O)cc2)C1 [iptacopan, 4-((2S,4S)-(4-ethoxy-1-((5-methoxy-7-methyl-1H-indol-4-yl)methyl)piperidin-2-yl))benzoic acid]",inhibition of the AP (Wieslab assay) predicted by exposure-response model,"AP activity (Wieslab); about 200 mg b.i.d, in most participants, model developed with FIH data in healthy volunteers",> 90%
same,"suppression of the AP (inhibition), sustained",AP activity (Wieslab); over 14 days of dosing at 200 mg b.i.d,≥ 80%
same,inhibition of AP activity (Wieslab),"AP activity (Wieslab); two hours post-dose, single dose of 200 mg, FIH study participants",≥ 80%
same,"direct kidney excretion, share of overall iptacopan dose",[1],20-25%
same,kidney contribution to the overall iptacopan clearance,[1],20-25%
same,substrate of OATP hepatic uptake transporter,[2],substrate
same,food effect,[3],no food effect
same,inhibition of the AP,AP,demonstrated inhibition of the AP
